Measured values from patent US20060148030A1, “Nuclear receptor err y 3” (FUJISAWA PHARMACEUTICAL CO., LTD, priority 2002, published 2006).
Like-named read-outs stand apart in the source and are kept apart here.

How the values were obtained:
[1] = system: ERRγ2; conditions: stated as known property, cited from earlier work
[2] = system: ERE (estrogen response element); experiment: Reporter gene assay of ERRγ3 alone, ERE luciferase reporter in CV-1 cells; assay type: cell-based, African green monkey; conditions: ERRγ3 expression plasmid alone, FIG. 15
Experimental: In order to construct a reporter gene assay system for evaluation of the transcription-controlling activity of ERRγ3, a reporter plasmid into which ERE (estrogen response element) was inserted was prepared along with expression plasmids for ERRγ3 and ERRγ2, as follows: A reporter gene assay was performed by transfecting the reporter plasmid and expression plasmids into cultured cells by lipofection, followed by incubating the cells for a certain time, treating the cells with cell lysis solution, and measuring reporter activity with a luminometer using a Dual luciferase assay. […]
The transcription-controlling activity of ERRγ3 was evaluated using a reporter gene assay. […]
The reporter gene assay was performed using CV-1 cells (African green monkey kidney-derived cell line) as hosts. […] They were then exposed to 4-hydroxytamoxifen at different concentrations (0, 10^−10 to −10^−5 M) for 24 hours, whereupon luciferase activity within the cells was measured.
Transfection was performed as follows: CV-1 cells were suspended at 2×10^5 cells/2.5 ml in DMEM medium supplemented with 10% fetal bovine serum, 2000 U/l of penicillin G, and 100 mg/l streptomycin. […] 1 μg of each of the transcription factor expression plasmid, the luciferase reporter plasmid, and another luciferase reporter plasmid for normalizing the measured value (pRL-TK), were dissolved in Opti-MEM (Gibco BRL) to total of 150 μl. […]

Sequence of ERRγ2 (P62508 whole entry): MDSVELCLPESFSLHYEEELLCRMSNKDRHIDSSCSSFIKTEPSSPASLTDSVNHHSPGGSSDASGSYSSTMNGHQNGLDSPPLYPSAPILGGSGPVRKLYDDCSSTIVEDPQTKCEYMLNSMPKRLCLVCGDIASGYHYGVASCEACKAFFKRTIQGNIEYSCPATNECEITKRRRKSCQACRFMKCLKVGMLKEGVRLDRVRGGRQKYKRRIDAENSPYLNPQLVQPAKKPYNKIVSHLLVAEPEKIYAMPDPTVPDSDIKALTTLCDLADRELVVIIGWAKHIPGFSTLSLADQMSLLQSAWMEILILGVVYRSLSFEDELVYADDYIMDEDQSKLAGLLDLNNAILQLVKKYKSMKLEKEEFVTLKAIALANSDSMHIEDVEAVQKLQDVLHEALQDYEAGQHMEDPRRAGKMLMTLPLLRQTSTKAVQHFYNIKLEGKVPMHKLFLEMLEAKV

4-hydroxytamoxifen [reference compound]
inhibition of the transcriptional activation function of ERRγ2 [1]: known to inhibit ERRγ2 activity | inhibition of the transcriptional activation function of ERRγ2 ([1]; listed as 4-OHT): inhibiting their transcriptional activation function

B1: ERRγ3: novel ERRγ isoform, nuclear receptor protein of 396 amino acids (SEQ ID NO: 2) lacking part of the DNA binding domain (protein, listed as Homo sapiens)
chain: MSNKDRHIDSSCSSFIKTEPSSPASLTDSVNHHSPGGSSDASGSYSSTMNGHQNGLDSPPLYPSAPILGGSGPVRKLYDDCSSTIVEDPQTKCEYMLNSMPKRLCLVCGDIASGYHYGVASCEACKAFFKRTIQGVRLDRVRGGRQKYKRRIDAENSPYLNPQLAQPAKKPYNKIVSHLLVAEPEKIYAMPDPTVPDSDIKALTTLCDLADRELVVIIGWAKHIPGFSTLSLADQMSLLQSAWMEILILGVVYRSLSFEDELVYADDYIMDEDQSKLAGLLDLNNAILQLVKKYKSMKLEKEEFVTLKAIALANSDSMHIEDVEAVQKLQDVLHEALQDYEAGQHMEDPRRAGKMLMTLPLLRQTSTKAVQHFYNIKLEGKVPMHKLFLEMLEAKV
transcription-controlling activity of ERRγ3 by itself [2]: does not comprise the transcription-controlling activity
